Results taken from patent US12077503B2, “Substituted cyclic amides and their use as herbicides” (FMC CORPORATION, priority 2015, dated 2024).
Where two headings read alike, the source gives them in different places.

Key:
Type in all cases: in vivo
Kochia (Kochia scoparia) = test: Test A postemergence; conditions: Bassia scoparia, post-emergence, 240 h; for pest or weed control at 125 g/ha: 125 g ai/ha, postemergence
How it was run: (§1)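 Greenhouse, ~10 d after spray; visual injury vs untreated controls, 0 = no effect, 100 = complete control. Preemergence: directed soil spray over planted seeds. Postemergence: plants 2–10 cm, 1–2 leaf stage. Loam/sand blend. Compound in non-phytotoxic solvent with surfactant.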

[1] = tested on: giant foxtail (Setaria faberii); test: Test A postemergence; conditions: Setaria faberi, post-emergence, 240 h; for pest or weed control at 125 g/ha: 125 g ai/ha, postemergence
How it was run: as §1

[2] = tested on: wheat (Triticum aestivum); test: Test A postemergence; conditions: Triticum aestivum, post-emergence, 240 h; for plant injury at 125 g/ha: 125 g ai/ha, postemergence
How it was run: as §1

[3] = tested on: Galium (catchweed bedstraw, Galium aparine); test: Test A postemergence; conditions: Galium, post-emergence, 240 h; for pest or weed control at 125 g/ha: 125 g ai/ha, postemergence
How it was run: as §1

[4] = tested on: ryegrass, Italian (Italian ryegrass, Lolium multiflorum); test: Test A postemergence; conditions: Lolium multiflorum, post-emergence, 240 h; for pest or weed control at 125 g/ha: 125 g ai/ha, postemergence
How it was run: as §1

corn (Zea mays) = test: Test A postemergence; conditions: Zea mays, post-emergence, 240 h
How it was run: as §1

[5] = tested on: ragweed (common ragweed, Ambrosia elatior); test: Test A postemergence; conditions: Ambrosia artemisiifolia, post-emergence, 240 h; for pest or weed control at 125 g/ha: 125 g ai/ha, postemergence
How it was run: as §1

[6] = tested on: barnyardgrass (Echinochloa crus-galli); test: Test A postemergence; conditions: Echinochloa crus-galli, post-emergence, 240 h; for pest or weed control at 125 g/ha: 125 g ai/ha, postemergence
How it was run: as §1

[7] = tested on: pigweed (Amaranthus retroflexus); test: Test A postemergence; conditions: Amaranthus retroflexus, post-emergence, 240 h; for pest or weed control at 125 g/ha: 125 g ai/ha, postemergence
How it was run: as §1

[8] = tested on: blackgrass (Alopecurus myosuroides); test: Test A postemergence; conditions: Alopecurus myosuroides, post-emergence, 240 h; for pest or weed control at 125 g/ha: 125 g ai/ha, postemergence
How it was run: as §1

[9] = tested on: sedge, umbrella (small-flower umbrella sedge, Cyperus difformis); test: Test B flooded paddy test; conditions: Cyperus difformis, Flood, 250 g ai/ha; scale of 0 to 100 where 0 is no effect and 100 is complete control; read-out: Sedge, Umbrella plant response rating
How it was run: (§2)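 Plants at 2-leaf stage flooded to 3 cm above soil, with compounds applied directly to paddy water and that depth maintained. Plants kept in greenhouse 13–15 d. Visual rating versus controls on a 0 (no effect) to 100 (complete control) scale.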

[10] = tested on: barnyardgrass (Echinochloa crus-galli); test: Test B flooded paddy test; conditions: Echinochloa crus-galli, Flood, 250 g ai/ha; scale of 0 to 100 where 0 is no effect and 100 is complete control; read-out: Barnyardgrass plant response rating
How it was run: as §2

rice (Oryra sativa) = test: Test B flooded paddy test; conditions: Oryza sativa, Flood, 250 g ai/ha; scale of 0 to 100 where 0 is no effect and 100 is complete control; read-out: Rice plant response rating
How it was run: as §2

[11] = tested on: ducksalad (Heteranthera limosa); test: Test B flooded paddy test; conditions: Heteranthera limosa, Flood, 250 g ai/ha; scale of 0 to 100 where 0 is no effect and 100 is complete control; read-out: Ducksalad plant response rating
How it was run: as §2

Q: For `CCc1cc(CC)cc([C@H]2CN(C)C(=O)[C@@H]2C(=O)Nc2ccccc2F)c1` [Compound 735], which pest or weed control at 125 g/ha (Kochia (Kochia scoparia); visual injury after approximately 10 d, 0 to 100 scale (0 no effect, 100 complete control), read-out: Plant response rating, Kochia) is on record?
A: Its pest or weed control at 125 g/ha is 30%.

Q: What about the pest or weed control at 125 g/ha ([1]; visual injury after approximately 10 d, 0 to 100 scale (0 no effect, 100 complete control), read-out: Plant response rating, Foxtail, Giant) of the same molecule?
A: Its pest or weed control at 125 g/ha is 90%.

Q: What about the plant injury at 125 g/ha ([2]; visual injury after approximately 10 d, 0 to 100 scale (0 no effect, 100 complete control), read-out: Plant response rating, Wheat) of the same molecule?
A: The plant injury at 125 g/ha was 50%.

Q: And the pest or weed control at 125 g/ha ([3]; visual injury after approximately 10 d, 0 to 100 scale (0 no effect, 100 complete control), read-out: Plant response rating, Galium)?
A: Its pest or weed control at 125 g/ha is 40%.

Q: What about the pest or weed control at 125 g/ha ([4]; visual injury after approximately 10 d, 0 to 100 scale (0 no effect, 100 complete control), read-out: Plant response rating, Ryegrass, Italian) of the same molecule?
A: Its pest or weed control at 125 g/ha is 60%.

Q: What about the Corn plant response rating (crop injury, 0 = no effect, 100 = complete kill) at 125 g/ha (corn (Zea mays); 125 g ai/ha, postemergence, visual injury after approximately 10 d, 0 to 100 scale (0 no effect, 100 complete control)) of the same molecule?
A: Its Corn plant response rating (crop injury, 0 = no effect, 100 = complete kill) at 125 g/ha is 80%.

Q: And the pest or weed control at 125 g/ha ([5]; visual injury after approximately 10 d, 0 to 100 scale (0 no effect, 100 complete control), read-out: Plant response rating, Ragweed)?
A: The pest or weed control at 125 g/ha was 0%.

Q: And the pest or weed control at 125 g/ha ([6]; visual injury after approximately 10 d, 0 to 100 scale (0 no effect, 100 complete control), read-out: Plant response rating, Barnyardgrass)?
A: The pest or weed control at 125 g/ha was 90%.

Q: And the pest or weed control at 125 g/ha ([7]; visual injury after approximately 10 d, 0 to 100 scale (0 no effect, 100 complete control), read-out: Plant response rating, Pigweed)?
A: Its pest or weed control at 125 g/ha is 20%.

Q: And the pest or weed control at 125 g/ha ([8]; visual injury after approximately 10 d, 0 to 100 scale (0 no effect, 100 complete control), read-out: Plant response rating, Blackgrass)?
A: Its pest or weed control at 125 g/ha is 50%.

Q: And the pest or weed control at 250 g/ha [9]?
A: The pest or weed control at 250 g/ha was 0%.

Q: And the pest or weed control at 250 g/ha [10]?
A: The pest or weed control at 250 g/ha was 60%.

Q: What about the pest or weed control at 250 g/ha (rice (Oryra sativa)) of the same molecule?
A: Its pest or weed control at 250 g/ha is 0%.

Q: What about the pest or weed control at 250 g/ha [11] of the same molecule?
A: Its pest or weed control at 250 g/ha is 40%.

Q: How did the pest or weed control at 125 g/ha (Kochia (Kochia scoparia); visual injury rating after approximately 10 d, read-out: Kochia plant response rating (0 to 100 scale, 0 no effect, 100 complete control)) turn out when `CN1CC[C@H](c2cccc(OC(F)(F)F)c2)[C@@H](C(=O)Nc2ccc(F)c(F)c2F)C1=O` [Compound 808] was run?
A: Its pest or weed control at 125 g/ha is 0%.

Q: And the pest or weed control at 31 g/ha (Kochia (Kochia scoparia); Postemergence, 31 g ai/ha, visual injury after approx. 10 d, 0 to 100 scale, 0 no effect, 100 complete control, read-out: Plant response rating, Kochia)?
A: The pest or weed control at 31 g/ha was 0%.

Q: What about the pest or weed control at 125 g/ha ([1]; visual injury rating after approximately 10 d, read-out: Foxtail, Giant plant response rating (0 to 100 scale, 0 no effect, 100 complete control)) of the same molecule?
A: The pest or weed control at 125 g/ha was 80%.

Q: And the pest or weed control at 31 g/ha ([1]; Postemergence, 31 g ai/ha, visual injury after approx. 10 d, 0 to 100 scale, 0 no effect, 100 complete control, read-out: Plant response rating, Foxtail, Giant)?
A: The pest or weed control at 31 g/ha was 70%.

Q: And the plant injury at 125 g/ha ([2]; visual injury rating after approximately 10 d, read-out: Wheat plant response rating (0 to 100 scale, 0 no effect, 100 complete control))?
A: The plant injury at 125 g/ha was 0%.

Q: What about the plant injury at 31 g/ha ([2]; Postemergence, 31 g ai/ha, visual injury after approx. 10 d, 0 to 100 scale, 0 no effect, 100 complete control, read-out: Plant response rating, Wheat) of the same molecule?
A: The plant injury at 31 g/ha was 0%.

Q: What about the pest or weed control at 125 g/ha ([3]; visual injury rating after approximately 10 d, read-out: Galium plant response rating (0 to 100 scale, 0 no effect, 100 complete control)) of the same molecule?
A: The pest or weed control at 125 g/ha was 0%.

Q: What about the pest or weed control at 31 g/ha ([3]; Postemergence, 31 g ai/ha, visual injury after approx. 10 d, 0 to 100 scale, 0 no effect, 100 complete control, read-out: Plant response rating, Galium) of the same molecule?
A: Its pest or weed control at 31 g/ha is 0%.

Q: What about the pest or weed control at 125 g/ha ([4]; visual injury rating after approximately 10 d, read-out: Ryegrass, Italian plant response rating (0 to 100 scale, 0 no effect, 100 complete control)) of the same molecule?
A: Its pest or weed control at 125 g/ha is 0%.

Q: And the pest or weed control at 31 g/ha ([4]; Postemergence, 31 g ai/ha, visual injury after approx. 10 d, 0 to 100 scale, 0 no effect, 100 complete control, read-out: Plant response rating, Ryegrass, Italian)?
A: The pest or weed control at 31 g/ha was 0%.

Q: And the plant injury at 125 g/ha (corn (Zea mays); 125 g ai/ha, postemergence, visual injury rating after approximately 10 d, read-out: Corn plant response rating (0 to 100 scale, 0 no effect, 100 complete control))?
A: The plant injury at 125 g/ha was 0%.

Q: What about the Corn plant response rating (crop injury, 0 = no effect, 100 = complete kill) at 31 g/ha (corn (Zea mays); Postemergence, 31 g ai/ha, visual injury after approx. 10 d, 0 to 100 scale, 0 no effect, 100 complete control) of the same molecule?
A: The Corn plant response rating (crop injury, 0 = no effect, 100 = complete kill) at 31 g/ha was 0%.

Q: What about the pest or weed control at 125 g/ha ([5]; visual injury rating after approximately 10 d, read-out: Ragweed plant response rating (0 to 100 scale, 0 no effect, 100 complete control)) of the same molecule?
A: The pest or weed control at 125 g/ha was 0%.

Q: What about the pest or weed control at 31 g/ha ([5]; Postemergence, 31 g ai/ha, visual injury after approx. 10 d, 0 to 100 scale, 0 no effect, 100 complete control, read-out: Plant response rating, Ragweed) of the same molecule?
A: The pest or weed control at 31 g/ha was 0%.

Q: And the pest or weed control at 125 g/ha ([6]; visual injury rating after approximately 10 d, read-out: Barnyardgrass plant response rating (0 to 100 scale, 0 no effect, 100 complete control))?
A: Its pest or weed control at 125 g/ha is 70%.

Q: And the pest or weed control at 31 g/ha ([6]; Postemergence, 31 g ai/ha, visual injury after approx. 10 d, 0 to 100 scale, 0 no effect, 100 complete control, read-out: Plant response rating, Barnyardgrass)?
A: Its pest or weed control at 31 g/ha is 50%.

Q: What about the pest or weed control at 125 g/ha ([7]; visual injury rating after approximately 10 d, read-out: Pigweed plant response rating (0 to 100 scale, 0 no effect, 100 complete control)) of the same molecule?
A: The pest or weed control at 125 g/ha was 0%.

Q: What about the pest or weed control at 31 g/ha ([7]; Postemergence, 31 g ai/ha, visual injury after approx. 10 d, 0 to 100 scale, 0 no effect, 100 complete control, read-out: Plant response rating, Pigweed) of the same molecule?
A: The pest or weed control at 31 g/ha was 0%.

Q: And the pest or weed control at 125 g/ha ([8]; visual injury rating after approximately 10 d, read-out: Blackgrass plant response rating (0 to 100 scale, 0 no effect, 100 complete control))?
A: Its pest or weed control at 125 g/ha is 0%.

Q: And the pest or weed control at 31 g/ha ([8]; Postemergence, 31 g ai/ha, visual injury after approx. 10 d, 0 to 100 scale, 0 no effect, 100 complete control, read-out: Plant response rating, Blackgrass)?
A: The pest or weed control at 31 g/ha was 0%.

Q: What about the pest or weed control at 250 g/ha [9] of the same molecule?
A: Its pest or weed control at 250 g/ha is 0%.

Q: What about the pest or weed control at 250 g/ha [10] of the same molecule?
A: The pest or weed control at 250 g/ha was 70%.

Q: What about the pest or weed control at 250 g/ha (rice (Oryra sativa)) of the same molecule?
A: The pest or weed control at 250 g/ha was 15%.

Q: And the pest or weed control at 250 g/ha [11]?
A: The pest or weed control at 250 g/ha was 100%.
